Legend:
intact rats = assay: Absorption of 3H-stearic acid with oral DIMEB in intact rats; format: in vivo, CFY female rats; details: for Radioactivity in 10 ml of blood: 11.3 mg 3H-stearic acid + 50 mg DIMEB oral
Method: The effect of DIMEB on the absorption of ^3 H-stearic acid was studied in intact rats. The aim of this experiment was to make clear if the absorption of stearic acid was stimulated by DIMEB under the conditions of physiological bile functions. The animals were starved overnight before and during the experiment but received water ad libitum. One group of the experimental animals (CFY female rats with an average body weight of 180 g; 3 animals ) received 13 mg of ^3 H-stearic acid (specific radioactivity: 147.22 kBq/mg), whereas the other group (3 animals) was given 11.3 mg of ^3 H-stearic acid and 50 mg of DIMEB in 2 ml of distilled water. The substances were suspended in the distilled water ultrasonically. Thereafter, the radioactivity level of the blood was measured at various time intervals by using the liquid scintillation method (Table X).

Water solubility = format: physicochemical
bile duct-ligated rats = assay: Substitution of the bile in rats: plasma total lipid after single fat dose; format: in vivo, rats (Etymis rattus var. albino)
Method: In the first series of experiments, the total lipid concentration of the plasma was investigated in bile-deficient rats.
The experimental rats (Etymis rattus var. albino) were kept on a standard food for 10 days before the experiment. The composition of this animal food was as follows:
The bile duct was ligated under ether anaesthesia.
In the 48th hour following the operation, 1.5 ml of swine fat or 1.5 ml of swine fat together with 75 mg of DIMEB were orally administered. After 4.5 hours, the animals were decapitated and the total lipid concentration of the plasma was determined according to the method of de La Huerga et al. [Amer. J. Clin. Pathol. 23, 1163 (1953)]

lipase = assay: In vitro enzymatic hydrolysis of triglycerides: glycerol trioleate, lipase; format: biochemical; details: 37° C.
Method: In an aqueous medium, lipase is capable to split triglycerides only at an extraordinarily low rate. Therefore, an organic solvent should be added to the system, by which the solubility of the triglycerides is increased, but the enzyme activity is diminished. Alternatively, some type of detergent, suitably bile has to be used. The effect of bile was compared to that of DIMEB at 37° C. in such a way that, the quantity of the formed free fatty acids in the samples taken from the reaction mixture at various intervals was titrated by using sodium hydroxide solution. The composition of the reaction mixture was as follows:
a total volume of 1.5 ml contained 4 μmoles of the substrate (triolein or olive oil), 10 mg of bovine serum albumin, 75 μmoles of sodium chloride, 50 μmoles of a phosphate buffer solution (pH 7.4) and 0.25 ml of an enzyme solution. A lipase of the Serva Company (in an 1 mg/10 ml solution) or a pancreas powder (0.5 g was suspended in 10 ml of distilled water and the slightly opalescent solution obtained after filtration was used) were employed as enzyme preparations.
The composition of the solutions to be tested were as follows:
0.5 ml of buffer+10 mg of serum albumin+3.54 mg of substrate+0.25 ml of enzyme solution plus
(a) 0.25 ml of diluted bile+0.50 ml of distilled water; or
(b) 50 mg of dimethyl-β-cyclodextrin dissolved in 0.75 ml of water; or […]

In the case of COC[C@H]1O[C@@H]2O[C@H]3[C@H](O)[C@@H](OC)[C@@H](O[C@H]4[C@H](O)[C@@H](OC)[C@@H](O[C@H]5[C@H](O)[C@@H](OC)[C@@H](O[C@H]6[C@H](O)[C@@H](OC)[C@@H](O[C@H]7[C@H](O)[C@@H](OC)[C@@H](O[C@H]8[C@H](O)[C@@H](OC)[C@@H](O[C@H]1[C@H](O)[C@H]2OC)O[C@@H]8COC)O[C@@H]7COC)O[C@@H]6COC)O[C@@H]5COC)O[C@@H]4COC)O[C@@H]3COC [DIMEB, heptakis(2,6-di-O-methyl)-β-cyclodextrin], the “Radioactivity in 10 ml of blood” value (intact rats; 1 h, animal 4) was 1.71 percentage, the “Radioactivity in 10 ml of blood” value (intact rats; 1 h, animal 5) was 1.74 percentage and the “Radioactivity in 10 ml of blood” value (intact rats; 1 h, animal 6) was 2.23 percentage. For the same molecule, the “Radioactivity in 10 ml of blood” value (intact rats; 1 h, mean) was 1.89 percentage, the “Radioactivity in 10 ml of blood” value (intact rats; 2 h, animal 4) was 1.84 percentage and the “Radioactivity in 10 ml of blood” value (intact rats; 2 h, animal 5) was 1.88 percentage. The “Radioactivity in 10 ml of blood” value (intact rats; 2 h, animal 6) was 2.00 percentage, the “Radioactivity in 10 ml of blood” value (intact rats; 2 h, mean) was 1.91 percentage and the “Radioactivity in 10 ml of blood” value (intact rats; 3 h, animal 4) was 2.03 percentage. For the same molecule, the “Radioactivity in 10 ml of blood” value (intact rats; 3 h, animal 5) was 1.75 percentage, the “Radioactivity in 10 ml of blood” value (intact rats; 3 h, animal 6) was 2.13 percentage and the “Radioactivity in 10 ml of blood” value (intact rats; 3 h, mean) was 1.97 percentage. The “Radioactivity in 10 ml of blood” value (intact rats; 4 h, animal 4) was 2.12 percentage, the “Radioactivity in 10 ml of blood” value (intact rats; 4 h, animal 5) was 1.71 percentage and the “Radioactivity in 10 ml of blood” value (intact rats; 4 h, animal 6) was 1.99 percentage. The “Radioactivity in 10 ml of blood” value (intact rats; 4 h, mean) was 1.94 percentage, the “Radioactivity in 10 ml of blood” value (intact rats; 5 h, animal 4) was 2.10 percentage and the “Radioactivity in 10 ml of blood” value (intact rats; 5 h, animal 5) was 1.76 percentage. For the same molecule, the “Radioactivity in 10 ml of blood” value (intact rats; 5 h, animal 6) was 2.00 percentage, the “Radioactivity in 10 ml of blood” value (intact rats; 5 h, mean) was 1.95 percentage and the “Radioactivity in 10 ml of blood” value (intact rats; 6 h, animal 4) was 2.16 percentage. For the same molecule, the “Radioactivity in 10 ml of blood” value (intact rats; 6 h, animal 5) was 1.75 percentage, the “Radioactivity in 10 ml of blood” value (intact rats; 6 h, animal 6) was 2.04 percentage and the “Radioactivity in 10 ml of blood” value (intact rats; 6 h, mean) was 1.98 percentage. For the same molecule, the “Radioactivity in 10 ml of blood” value (intact rats; 8 h, animal 4) was 2.16 percentage, the “Radioactivity in 10 ml of blood” value (intact rats; 8 h, animal 5) was 1.84 percentage and the “Radioactivity in 10 ml of blood” value (intact rats; 8 h, animal 6) was 1.94 percentage. For the same molecule, the “Radioactivity in 10 ml of blood” value (intact rats; 8 h, mean) was 1.98 percentage, the “Radioactivity in 10 ml of blood” value (intact rats; 10 h, animal 4) was 2.20 percentage and the “Radioactivity in 10 ml of blood” value (intact rats; 10 h, animal 5) was 2.02 percentage. The “Radioactivity in 10 ml of blood” value (intact rats; 10 h, animal 6) was 2.21 percentage, the “Radioactivity in 10 ml of blood” value (intact rats; 10 h, mean) was 2.14 percentage and the “Radioactivity in 10 ml of blood” value (intact rats; 24 h, animal 4) was 2.84 percentage. For the same molecule, the “Radioactivity in 10 ml of blood” value (intact rats; 24 h, animal 5) was 2.94 percentage, the “Radioactivity in 10 ml of blood” value (intact rats; 24 h, animal 6) was 2.39 percentage and the “Radioactivity in 10 ml of blood” value (intact rats; 24 h, mean) was 2.72 percentage. The “Radioactivity of the blood, percent of the administered activity” value (intact rats; 24th hour, both groups) was 2.7%, the “Absorption-enhancing effect on 3H-stearic acid” value (intact rats; physiological bile functions, 50 mg DIMEB) was “did not show any absorption-enhancing effect” and the Water solubility (Water solubility) was “very high water solubility”. The “Increase of total lipid fraction in the blood plasma” value (bile duct-ligated rats; bile duct-ligated rats, 1.5 ml fat + 75 mg DIMEB) was 5 fold, the “Total lipid concentration of the blood plasma” value (bile duct-ligated rats; rats after bile duct-ligation, 1.5 ml fat + 75 mg DIMEB oral, after 4.5 hours) was 1266.6 ± 86.5 mg/100 ml and the “0.005 N NaOH consumed” value (lipase; series Bile II, glycerol trioleate, reaction time 1 hour) was 0.34 mL. The “0.005 N NaOH consumed” value (lipase; series Bile II, glycerol trioleate, reaction time 2 hour) was 0.80 mL, the “0.005 N NaOH consumed” value (lipase; series Bile II, glycerol trioleate, reaction time 3 hour) was 1.16 mL and the “0.005 N NaOH consumed” value (lipase; series Bile II, glycerol trioleate, reaction time 21 hour) was 1.86 mL. For the same molecule, the “0.005 N NaOH consumed” value (lipase; series Bile III, glycerol triolate, reaction time 1 hour) was 0.28 mL, the “0.005 N NaOH consumed” value (lipase; series Bile III, glycerol triolate, reaction time 2 hour) was 0.68 mL and the “0.005 N NaOH consumed” value (lipase; series Bile III, glycerol triolate, reaction time 4 hour) was 1.20 mL.

— US4774232A, “Bile-substituting method of treatment for the promotion of fat digestion” (Chinoin Gyogyszer Es Vegyeszeti Termak Ek Gyara Rt, priority 1985, dated 1988)
